From US7410955B2, “Therapeutic use of agonist ligands specific to G2A receptor” (Biosynergen, Inc., priority 2002, dated 2008)

Tests used:
[1] = tested on: E. coli (DH5a); experiment: Bacteria-induced sepsis model; type: in vivo, ICR mice; conditions: 10 mg/kg subcutaneous, 2 and 14 hours after i.p. E. coli
Procedure: ICR mice (25-30 g in body weight; MJ Ltd.) were intraperitoneally injected with alive 10^8 cells/ml E. coli (DH5a) that were suspended in 0.5 ml of PBS (phosphate-buffered saline) to cause peritonitis, thereby inducing sepsis.
After the peritoneal cavity of mice had been exposed, it was washed with sterilized saline (2 ml). The resultant solution was diluted with HBSS (Sigma Chemical Co., USA) in a ratio of 1/1000, and then 10 μl of each diluted solution was spread on Trypticase Soy agar (BBL, Becton Dickinson Co., USA) plates. After overnight incubation at 37° C., colony forming unit (CFU) was measured.
14 ICR mice of bacteria-induced septicemia model according to Reference Example <1-1> a) were divided into two groups of 7 mice. 7 mice were administered with 1-stearoyl LPC (Sigma Chemical Co., USA) dissolved in 1% BSA (bovine serum albumin) solution containing no fatty acid in an amount of 10 mg/kg by subcutaneous injection, 2 and 14 hours after E. coli was intraperitoneally injected, respectively (experimental group). The remaining 7 mice were administered with 1% BSA solution containing no fatty acid of the same amount as above, instead of LPC, in the same manner (control group). […] Also, the number of intraperitoneal E. coli cells 24 hours after the intraperitoneal injection was measured in accordance with the method described in Reference Example 3.

[2] = tested on: neutrophils; experiment: Inhibition of anti-apoptosis of neutrophils by inflammation mediators (AcOr/EtBr staining); type: cell-based, human; conditions: 15 μM and 30 μM
Source text: Neutrophils were isolated from healthy adults using discontinuous percoll gradient according to the method of Szucs, S. et al. (J. Immunol. Methods, 167: 245-251, 1994). First, plasmas were separated from heparinized whole blood, and red blood cells were depleted by dextran sedimentation. Thereafter, leukocytes were layered over a percoll gradient with densities of 1.077 and 1.094 (Pharmacia, Sweden). Separated neutrophil layers were recovered from the percoll gradient interface, and then washed with HBSS (Hank's balanced salt solution, Sigma Chemical Co., USA). The remaining pellet was resuspended in RPMI 1640 medium supplemented with 10% FBS (fetal bovine serum) and 2 mM gentamicin. As a result of the examination of the cytospin stained with Wright-Giemsa (Sigma Chemical Co., USA), it was observed that the resuspension solution contained 95% or more neutrophils. Also, as a result of examination using trypan blue dye exclusion method, 98% or more neutrophils were observed.
1×10^5 neutrophil cells isolated in above Example <1-1> were cultured in a 96-well plate to which RPMI1640 medium containing 10% FBS was added. Thereafter, they were treated with 1-stearoyl lysophosphatidylcoline (Sigma Chemical Co., USA) in concentrations of 15 μM and 30 μM, respectively. After 1 hour, they were treated with 1 μg/ml LPS (Sigma Chemical Co.). After 24 hours, the medium was removed from the plats, and the remaining cells were washed twice with PBS (phosphate-buffered saline) buffer at 4° C. The cells adhered to the bottom of the plate were all scraped and put into a 1.5-ml eppendorf tube. Then, they were centrifuged at 2500 rpm for 5 min, and the supernatant was removed. Again, 0.1 ml of PBS buffer at 4° C. was added to the pellet, which was then well mixed using pipetting. To 25 μl of the cell suspension was added 2 μl of AcOr/EtBr dye solution in which 100 μg/ml of acridine orange (AcOr) and 100 μg/ml of ethidium bromide (EtBr) were mixed. Then, the percentage of apoptotic cells/total cells was calculated with observing the neutrophil cells under a fluorescence microscope. […]

CCCCCCCCCCCCCCCCCC(=O)OCC(O)COP(=O)([O-])OCC[N+](C)(C)C (stereo not shown) [1-stearoyl LPC, 1-stearoyl (18:0) lysophosphatidylcholine]
number of intraperitoneal E. coli cells ([1]; 24 hours after injection, P<0.01): remarkably decreased
death rate due to septicemia (survival rate over time) ([1]; P<0.05): significantly suppressed
percentage of neutrophil apoptosis (apoptotic cells/total cells) that had been decreased by LPS ([2]; 1 hour before 1 μg/ml LPS, read after 24 hours): increased by 1-stearoyl LPC in a concentration-dependent manner
percentage of neutrophil apoptosis that had been decreased by endogenous inflammation mediators ([2]; 100 ng/ml GM-CSF, 100 ng/ml G-CSF or 100 ng/ml IFN-γ instead of LPS): increased by 1-stearoyl LPC in a concentration-dependent manner
